Reference: patent publication US9920050B2, “Fused heterocyclic compound and pest control use thereof” (Sumitomo Chemical Company, Limited, priority 2013, dated 2018)

Assays:
Type in all cases: in vivo
Musca domestica = experiment: Test Example 8: treated filter paper with sucrose bait, Musca domestica; conditions: 500 ppm, 0.7 ml on filter paper, female imagoes, after 24 hours
Method: The formulations of Compounds of Present Invention 1, 9, 15 to 16, 19, 22, 24, 31 to 32, 34, 41 and 45 to 46 as produced in Formulation Example 5 were diluted with water, so as to have a concentration of the active ingredient of 500 ppm, to prepare each test drug solution.
(§1) A filter paper having a diameter of 5.5 cm was spread on the bottom of a polyethylene cup having the same diameter and 0.7 ml of the test drug solution was added dropwise onto the filter paper, and 30 mg of sucrose was uniformly placed as bait. Into the polyethylene cup, 10 female imagoes of Musca domestica were released, and the cup was sealed with a lid. After 24 hours, the life and death of Musca domestica was examined, the number of dead insects was counted, and the death rate was calculated according to the following equation. Death rate (%)=(Number of dead insects/Number of tested insects)×100

[1] = test system: Haemaphysalis longicornis; experiment: Test Example 11: coated screw tube contact test, Haemaphysalis longicornis ticks; conditions: 2 mg compound coated on inner wall of screw tube, unfed nymphal ticks, after 2 days
Method: Two milligrams of each of Compounds of Present Invention 8 to 9, 20, 22 and 31 to 32 was weighed out in a screw tube (Maruemu No. 5; 27×55 mm), and 0.2 mL of acetone was added thereto, and the screw tube was sealed with a cap to dissolve the compound. The screw tube was rotated and inverted to uniformly coat the drug solution onto the whole inner wall of the tube. After removing the cap, the solution was air-dried for about 2 hours, then unfed nymphal ticks, Haemaphysalis longicornis (5 ticks/group) were released, and the tube was sealed with the cap. After 2 days, the number of dead insects was counted, and the death rate was calculated according to the following equation: Death rate (%)=100×(Number of dead insects/Number of tested insects)

Blattella germanica = experiment: Test Example 9: treated filter paper with sucrose bait, Blattella germanica; conditions: 500 ppm, 0.7 ml on filter paper, male imagoes, after 6 days
Method: The formulations of Compounds of Present Invention 9, 15 to 16, 19, 22, 30 to 32, 34, 41 and 45 to 46 as produced in Formulation Example 5 were diluted with water, so as to have a concentration of the active ingredient of 500 ppm, to prepare each test drug solution.
as §1, with “2 male” for “10 female”, “Blattella germanica” for “Musca domestica”, “6 days,” for “24 hours,”

Work on `CCS(=O)(=O)c1ccc(NC2CC2)nc1-c1nc2cc(C(F)(F)F)cnc2n1C` [compound 31] yielded a death rate (Musca domestica) of 100% and a death rate [1] of 100%.
`CCS(=O)(=O)c1cc(NCC2CCOC2)cnc1-c1nc2cc(C(F)(F)F)cnc2n1C` (stereo not drawn) [compound 20] gave a death rate [1] of 100%.
For `CCS(=O)(=O)c1cc(NC(=O)C2CCC2)cnc1-c1nc2cc(C(F)(F)F)cnc2n1C` [compound 8], the death rate [1] was 100%.
`CCS(=O)(=O)c1ccc(NOC)nc1-c1nc2cc(C(F)(F)F)cnc2n1C` [compound 30] showed a death rate (Blattella germanica) of 100%.
Work on `CCS(=O)(=O)c1cc(NC2CC2)cnc1-c1nc2cc(C(F)(F)F)cnc2n1C` [compound 9] yielded a death rate (Musca domestica) of 100%, a death rate (Blattella germanica) of 100% and a death rate [1] of 100%.
For `CCS(=O)(=O)c1cc(NC(=O)C(=O)N(C)C)cnc1-c1nc2cc(C(F)(F)F)cnc2n1C` [compound 16], the death rate (Musca domestica) was 100% and the death rate (Blattella germanica) was 100%.
Compound `CCS(=O)(=O)c1cc(NC(=O)c2ccccn2)cnc1-c1nc2cc(C(F)(F)F)cnc2n1C` [compound 24] has a death rate (Musca domestica) of 100%.
For `CCS(CC)=Nc1ccc(S(=O)(=O)CC)c(-c2nc3cc([S+]([O-])C(F)(F)F)ccc3o2)n1` (stereo not drawn) [compound 41], the death rate (Musca domestica) was 100% and the death rate (Blattella germanica) was 100%.
`CCS(=O)(=O)c1ccc(NC2CC2)nc1-c1nc2cc([S+]([O-])C(F)(F)F)ccc2o1` (stereo not drawn) [compound 32] showed a death rate (Musca domestica) of 100%, a death rate (Blattella germanica) of 100% and a death rate [1] of 100%.
`CCS(=O)(=O)c1ccc(NCc2ccccc2)nc1-c1nc2cc([S+]([O-])C(F)(F)F)ccc2o1` (stereo not drawn) [compound 34] was tested, and the death rate (Musca domestica) was 100% and the death rate (Blattella germanica) was 100%.
In the case of `CCS(=O)(=O)c1cc(NC(=O)C2CC2)cnc1-c1nc2cc(C(F)(F)F)cnc2n1C` [compound 22], the death rate (Musca domestica) is reported as 100%, the death rate (Blattella germanica) is reported as 100% and the death rate [1] is reported as 100%.
Compound `CCS(=O)(=O)c1ccc(NCc2ccc(Cl)nc2)nc1-c1nc2cc([S+]([O-])C(F)(F)F)ccc2o1` (stereo not drawn) [compound 46] has a death rate (Musca domestica) of 100% and a death rate (Blattella germanica) of 100%.
For `CCS(=O)(=O)c1cc(NC(=O)OCc2ccccc2)cnc1-c1nc2cc(C(F)(F)F)cnc2n1C` [compound 1], the death rate (Musca domestica) was 100%.
Work on `CCS(=O)(=O)c1cc(NN)cnc1-c1nc2cc(C(F)(F)F)cnc2n1C` [compound 19] yielded a death rate (Musca domestica) of 100% and a death rate (Blattella germanica) of 100%.
In the case of `CCS(=O)(=O)c1cc(NNC(=O)OC)cnc1-c1nc2cc(C(F)(F)F)cnc2n1C` [compound 15], the death rate (Musca domestica) is reported as 100% and the death rate (Blattella germanica) is reported as 100%.
Compound `CCS(=O)(=O)c1ccc(NC(=O)C2CC2)nc1-c1nc2cc([S+]([O-])C(F)(F)F)ccc2o1` (stereo not drawn) [compound 45] has a death rate (Musca domestica) of 100% and a death rate (Blattella germanica) of 100%.
